Reference: patent US11427783B2, “Perfuming compositions” (Firmenich SA, priority 2016, dated 2022)
Read-outs that look alike come from different tables or passages of the source. Values belong to the molecule of their own block, whether it stands above or below them.

Assay: Volatility of perfuming compounds in air
Assay type: physicochemical
[1] = Table 10, perfuming compounds having a woody note
[2] = Table 5, perfuming compounds having a green note
[3] = Table 6, perfuming compounds having a fruity note
[4] = Table 8, perfuming compounds having a sweet note
[5] = Table 9, perfuming compounds having a gourmand note

Volatility (μg/l air) [1]: 29.81 μg/l air
Molecule: CC1C(C)(C)C2=C(C(=O)CCC2)C1(C)C (centres unmarked)

Volatility [2]: 29.99 μg/l air
Molecule: CC1CC(C)(C)OC(Cc2ccccc2)O1 (centres unmarked)

Volatility [2]: 195.24 μg/l air
Molecule: COc1nccnc1CCCC(C)C

Volatility (μg/l air) [1]: 3.82 μg/l air
Molecule: CCC(C)C1(C)COC(C2CCC(C)=CC2C)OC1 (centres unmarked)

Volatility (μg/l air) [1]: 60.02 μg/l air
Molecule: CC(=O)OCCC1=CCC2CC1C2(C)C (centres unmarked)

Volatility (μg/l air) [3]: 113.83 μg/l air
Molecule: CC1CC(C)(c2ccccc2)OC(C)O1 (centres unmarked)

Volatility (μg/l air) [1]: 9.23 μg/l air
Molecule: CC1(C)CCC[C@@]2(C)[C@H]1CC[C@@]1(C)OCC[C@@H]21

Volatility (μg/l air) [1]: 1311.32 μg/l air
Molecule: COC(OC)C(C)(C)CC=C(C)C

Volatility [2]: 2483.93 μg/l air
Molecule: CC(C)=CC1CC(C)CCO1 (centres unmarked)

Volatility (μg/l air) [1]: 735.37 μg/l air
Molecule: CC(=O)O[C@@H]1CC2CC[C@]1(C)C2(C)C

Volatility (μg/l air) [3]: 2.05 μg/l air | Volatility (μg/l air) [4]: 2.05 μg/l air | Volatility (μg/l air) [5]: 2.05 μg/l air
Molecule: CC1=CC[C@H](C(C)CC2CCCC2=O)CC1 (some centres unmarked)

Volatility (μg/l air) [1]: 1.74 μg/l air
Molecule: CC1(CO)CC1CC1CC2CC2(C)C1(C)C (centres unmarked)

Volatility [2]: 1247.28 μg/l air
Molecule: C=C/C=C/C=C\CCCCC

Molecule: Cc1ccc(OCC=O)cc1
Volatility [2]: 89.41 μg/l air

Volatility (μg/l air) [1]: 20.41 μg/l air
Molecule: CC1=CCC(/C=C/C(C)C(C)O)C1(C)C (centres unmarked)

Volatility (Table 7, citrus note): 89.88 μg/l air
Molecule: CC(C)=CCC/C(C)=C/CO

Volatility (Table 7, citrus note): 86.02 μg/l air
Molecule: CC(C)=CCC/C(C)=C\CO

Volatility (μg/l air) [1]: 0.00 μg/l air
Molecule: C[C@@H]1CC[C@H]2C(C)(C)[C@H]3C[C@@]12C[C@@H]1OC(C)(C)O[C@@]13C

Volatility (μg/l air) [3]: 4.14 μg/l air | Volatility (μg/l air) [1]: 4.14 μg/l air
Molecule: C[C@H]1[C@@H]2C[C@H](C[C@@]13C=CC(=O)CC3)C2(C)C

Molecule: C=C(C)[C@@H]1CC=C(CO)CC1
Volatility [2]: 33.78 μg/l air

Volatility [2]: 78.89 μg/l air
Molecule: 3,7-DIMETHYL-2,6-NONADIENENITRILE (A) + 3,7-DIMETHYL-3,6-NONADIENENITRILE (B)

Volatility (μg/l air) [1]: 205.05 μg/l air
Molecule: CCC(O)COC1CCCCC1C(C)(C)C (racemic)

Volatility (μg/l air) [1]: 3.42 μg/l air
Molecule: CCCC(O)CCC1C(C)CCC(C)C1(C)C (racemic)

Volatility (μg/l air) [1]: 135.00 μg/l air
Molecule: C=C1C2CCC(C)(OCC)C1CCC2(C)C (racemic)

Volatility (μg/l air) [1]: 3.69 μg/l air
Molecule: CCC(=CCC1CC=C(C)C1(C)C)CO (racemic)

Volatility [2]: 421.15 μg/l air
Molecule: CCC(C)(O)CCCC(C)C (racemic)

Volatility (μg/l air) [4]: 52.47 μg/l air
Molecule: CC1OCCC12NCCS2 (racemic)

Volatility (μg/l air) [1]: 35.54 μg/l air
Molecule: COC(C)(C)CCCC(C)C(C)O (racemic)

Volatility [2]: 2010.91 μg/l air
Molecule: COC(=O)C1C(C)=CCCC1(C)C (racemic)

Volatility [2]: 330.48 μg/l air
Molecule: CC1CCCC2(C)CCCCC12O (racemic)

Volatility (μg/l air) [1]: 659.22 μg/l air
Molecule: CC(=O)/C(C)=C(/C)C(C)C(C)(C)C (racemic)

Volatility [2]: 278.83 μg/l air
Molecule: COC(=O)OC1CC/C=C\CCC1 (racemic)

Volatility (μg/l air) [4]: 152.99 μg/l air | Volatility (μg/l air) [5]: 152.99 μg/l air
Molecule: C=C1CCCC(C)(C)C1C(=O)/C=C/C (racemic)

Volatility (μg/l air) [3]: 36.33 μg/l air | Volatility (μg/l air) [1]: 106.28 μg/l air
Molecule: CC(=O)/C(C)=C/C1C(C)=CCCC1(C)C (racemic)

Volatility [2]: 2534.77 μg/l air
Molecule: CCCC(S)CCOC (racemic) [(+−)-1-METHOXY-3-HEXANETHIOL]

Volatility (μg/l air) [4]: 97.79 μg/l air
Molecule: CCCCCC1CCCC1O (racemic) [(+−)-2-PENTYL-1-CYCLOPENTANOL]

Molecule: CCC(C)C(=O)OCCc1ccccc1 (racemic) [(+−)-2-PHENYLETHYL 2-METHYLBUTANOATE]
Volatility (μg/l air) [3]: 37.73 μg/l air

Volatility [2]: 12045.92 μg/l air
Molecule: CC(CC=O)CC(C)(C)C (racemic) [(+−)-3,5,5-TRIMETHYLHEXANAL]

Molecule: CC(CC=O)c1ccccc1 (racemic) [(+−)-3-PHENYLBUTANAL]
Volatility [2]: 227.83 μg/l air

Volatility (μg/l air) [3]: 10.49 μg/l air | Volatility (μg/l air) [4]: 10.49 μg/l air | Volatility (μg/l air) [5]: 10.49 μg/l air
Molecule: CCCCCCC1CCC(=O)O1 (racemic) [(+−)-4-DECANOLIDE]

Volatility (μg/l air) [4]: 295.34 μg/l air
Molecule: CCCC1CCC(=O)O1 (racemic) [(+−)-4-HEPTANOLIDE]

Volatility (μg/l air) [3]: 27.42 μg/l air | Volatility (μg/l air) [5]: 27.42 μg/l air
Molecule: CCCCCC1CCC(=O)O1 (racemic) [(+−)-4-NONANOLIDE]

Volatility (μg/l air) [3]: 108.41 μg/l air | Volatility (μg/l air) [5]: 108.41 μg/l air
Molecule: CCCCC1CCC(=O)O1 (racemic) [(+−)-4-OCTANOLIDE]

Volatility (μg/l air) [1]: 172.78 μg/l air
Molecule: CC1=CCC(C(C)(C)O)CC1 (racemic) [(+−)-ALPHA-TERPINEOL]

Volatility (μg/l air) [3]: 21.05 μg/l air | Volatility (μg/l air) [4]: 21.05 μg/l air | Volatility (μg/l air) [5]: 21.05 μg/l air
Molecule: CCCCC[C@@H]1OC(=O)C[C@H]1C (racemic) [(+−)-TRANS-3-METHYL-4-NONANOLIDE]

Volatility (μg/l air) [3]: 4.39 μg/l air
Molecule: CCC(=O)OCC(C)(C)OC(C)C1CCCC(C)(C)C1 (single isomer, unassigned; (+))

Molecule: COC(OC)C(C)c1ccccc1 (centres unmarked) [1,1-DIMETHOXY-2-PHENYLPROPANE]
Volatility [2]: 376.94 μg/l air

Volatility (μg/l air) [3]: 34.65 μg/l air | Volatility (μg/l air) [4]: 34.65 μg/l air | Volatility (μg/l air) [5]: 34.65 μg/l air
Molecule: CCCC(=O)OC(C)(C)Cc1ccccc1 [1,1-DIMETHYL-2-PHENYLETHYL BUTANOATE]

Volatility [2]: 50.21 μg/l air
Molecule: COc1ccc(C(C)=O)cc1 [1-(4-METHOXYPHENYL)-1-ETHANONE”]

Volatility [2]: 31.90 μg/l air
Molecule: CCCCCCCCCCO [1-DECANOL]

Molecule: CCCOC(C)OCCc1ccccc1 (centres unmarked) [1-PHENYL-2-(1-PROPOXYETHOXY)ETHANE]
Volatility [2]: 59.63 μg/l air

Volatility [2]: 2070.00 μg/l air
Molecule: CCCCCCO [1-hexanol]

Volatility (μg/l air) [4]: 1728.98 μg/l air
Molecule: CC(=O)c1ccccc1 [1-phenylethanone]

Volatility (μg/l air) [4]: 7897.31 μg/l air
Molecule: Cc1cnc(C)c(C)n1 [2,3,5-TRIMETHYLPYRAZINE]

Volatility (μg/l air) [4]: 19.23 μg/l air | Volatility (μg/l air) [5]: 19.23 μg/l air
Molecule: COc1cccc(OC)c1O [2,6-DIMETHOXYPHENOL]

Volatility [2]: 3.83 μg/l air
Molecule: c1ccc(CCCc2ccccn2)cc1 [2-(3-PHENYLPROPYL)PYRIDINE]

Volatility (μg/l air) [4]: 2.36 μg/l air
Molecule: Cc1ncsc1CCO [2-(4-METHYL-1,3-THIAZOL-5-YL)-1-ETHANOL]

Volatility (μg/l air) [4]: 0.51 μg/l air | Volatility (μg/l air) [5]: 0.51 μg/l air
Molecule: O=c1ccc2ccccc2o1 [2-CHROMENONE]

Volatility (μg/l air) [4]: 489.45 μg/l air | Volatility (μg/l air) [5]: 489.45 μg/l air
Molecule: CC(=O)OCCC1CCCCC1 [2-CYCLOHEXYLETHYL ACETATE]

Volatility (μg/l air) [3]: 48.86 μg/l air | Volatility (μg/l air) [4]: 48.86 μg/l air
Molecule: CCc1occc(=O)c1O [2-ETHYL-3-HYDROXY-4(4H)-PYRANONE]

Molecule: SCc1ccco1 [2-FURANMETHANETHIOL]
Volatility (μg/l air) [4]: 29677.31 μg/l air

Volatility (μg/l air) [4]: 396.50 μg/l air
Molecule: CC1=C(O)C(=O)CC1 [2-HYDROXY-3-METHYL-2-CYCLOPENTEN-1-ONE]

Volatility (μg/l air) [4]: 8.73 μg/l air
Molecule: CC(C)Cc1ccc2ccccc2n1 [2-ISOBUTYLQUINOLINE]

Volatility (μg/l air) [4]: 306.61 μg/l air
Molecule: COc1cc(C)ccc1O [2-METHOXY-4-METHYLPHENOL]

Molecule: CCCC1CCC(O)C(OC)C1 (centres unmarked) [2-METHOXY-4-PROPYL-1-CYCLOHEXANOL]
Volatility: 189.74 μg/l air

Volatility [2]: 687.75 μg/l air
Molecule: CCCC(=NO)C(C)C [2-METHYL-3-HEXANONE OXIME]
